Experimental data reported in patent US10112937B2, “P2X7 modulators and methods of use” (Janssen Pharmaceutica NV, priority 2013, dated 2018).

Legend:
rat P2X7 = rat P2X7 (Rattus norvegicus (Rat), UniProt Q64663); test: Ca2+ flux (FLIPR) in 1321N1 cells expressing recombinant rat P2X7; type: cell-based;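 further: Calcium-4 dye fluorescence change read 180 s after agonist addition, with cells preincubated 30 min with compound and dye in 96-well plates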
Experimental: P2X7 Antagonism in Recombinant Human P2X7 Cells or Recombinant Rat P2X7 Cells: (a) Ca^2+ Flux and (b) Radioligand Binding
1321N1 cells expressing the recombinant human or rat P2X7 channel was cultured in HyQ DME/(HyClone/Dulbecco's Modified Eagle Medium) high glucose supplemented with 10% Fetal Bovine Serum (FBS) and appropriate selection marker. Cells were seeded at a density of 25000 cells/well (96-well clear bottom black walled plates) in 100 μl volume/well. On the day of the experiment, cell plates were washed with assay buffer, containing (in mM): 130 NaCl, 2 KCl, 1 CaCl2, 1 MgCl2, 10 HEPES, 5 glucose; pH 7.40 and 300 mOs. After the wash, cells were loaded with the Calcium-4 dye (Molecular Device) and incubated in the dark for 60 minutes. Test compounds were prepared at 250× the test concentration in neat DMSO. Intermediate 96-well compound plates were prepared by transferring 1.2 μL of the compound into 300 μL of assay buffer. A further 3× dilution occurred when transferring 50 μL/well of the compound plate to 100 μL/well in the cell plate. Cells were incubated with test compounds and dye for 30 minutes. […] The fluorescence change was measured 180 seconds after adding the agonist.

human P2X7 = human P2X7 (Homo sapiens (Human), UniProt Q99572); test: P2X7 antagonism in human PBMCs (IL-1β release after LPS + Bz-ATP, ELISA); type: cell-based
[1] = 1321N1 cells, recombinant rat P2X7, 250 μM BzATP
[2] = human PBMCs, test compound 10 μM

Chain of rat P2X7 (Q64663 whole entry): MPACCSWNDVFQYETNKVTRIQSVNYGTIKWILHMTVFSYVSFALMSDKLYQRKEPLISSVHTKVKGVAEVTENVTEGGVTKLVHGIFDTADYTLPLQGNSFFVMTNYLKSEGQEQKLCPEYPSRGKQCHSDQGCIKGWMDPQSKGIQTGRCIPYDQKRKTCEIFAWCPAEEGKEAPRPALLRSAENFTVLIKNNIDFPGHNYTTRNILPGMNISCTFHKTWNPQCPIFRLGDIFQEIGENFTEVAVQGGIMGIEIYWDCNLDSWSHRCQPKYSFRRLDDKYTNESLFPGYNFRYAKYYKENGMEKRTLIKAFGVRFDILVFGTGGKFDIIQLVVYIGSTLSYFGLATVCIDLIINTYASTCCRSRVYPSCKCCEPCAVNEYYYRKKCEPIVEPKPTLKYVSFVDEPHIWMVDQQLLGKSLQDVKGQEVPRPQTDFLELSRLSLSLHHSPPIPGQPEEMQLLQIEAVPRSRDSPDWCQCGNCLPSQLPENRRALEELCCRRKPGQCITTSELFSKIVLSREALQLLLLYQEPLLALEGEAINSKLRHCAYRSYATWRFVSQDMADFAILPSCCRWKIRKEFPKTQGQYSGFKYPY
Chain of human P2X7 (Q99572 whole entry): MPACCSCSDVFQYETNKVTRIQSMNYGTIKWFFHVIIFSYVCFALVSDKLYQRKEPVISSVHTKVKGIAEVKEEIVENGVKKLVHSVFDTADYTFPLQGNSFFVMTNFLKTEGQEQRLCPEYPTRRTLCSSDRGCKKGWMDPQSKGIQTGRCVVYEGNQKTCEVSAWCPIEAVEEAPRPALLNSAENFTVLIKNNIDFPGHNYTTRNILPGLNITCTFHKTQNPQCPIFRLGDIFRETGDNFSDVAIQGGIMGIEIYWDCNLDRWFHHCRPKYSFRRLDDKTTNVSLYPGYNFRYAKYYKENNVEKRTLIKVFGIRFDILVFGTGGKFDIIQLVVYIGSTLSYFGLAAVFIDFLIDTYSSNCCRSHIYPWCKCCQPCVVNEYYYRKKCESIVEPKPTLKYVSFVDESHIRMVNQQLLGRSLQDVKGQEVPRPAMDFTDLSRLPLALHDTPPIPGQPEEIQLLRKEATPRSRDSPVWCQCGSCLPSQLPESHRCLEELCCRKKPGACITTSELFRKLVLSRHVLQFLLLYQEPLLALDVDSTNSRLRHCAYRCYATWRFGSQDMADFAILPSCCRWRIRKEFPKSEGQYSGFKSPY

Row | SMILES | IC50 (rat P2X7; [1]) [µM] | PBMC 10 μM (% control) (human P2X7; [2]) | further results
1 | Cc1cc(-n2nnc3c2CCN(C(=O)c2ccc(Cl)c(C(F)(F)F)c2)C3C)ncc1F (centres unmarked) [Example 364, (4-chloro-3-(trifluoromethyl)phenyl)(1-(5-fluoro-4-methylpyridin-2-yl)-4-methyl-6,7-dihydro-1H-[1,2,3]triazolo[4,5-c]pyridin-5(4H)-yl)methanone] | 5.79 | 4.8 | –
2 | CN(C)C(=O)C1c2ncn(-c3ccccn3)c2CCN1C(=O)c1cccc(C(F)(F)F)c1Cl (centres unmarked) [Example 34, 5-{[2-Chloro-3-(trifluoromethyl)phenyl]carbonyl}-N,N-dimethyl-1-pyridin-2-yl-4,5,6,7-tetrahydro-1H-imidazo[4,5-c]pyridine-4-carboxamide] | 0.279 | – | –
3 | CCOC(=O)C1c2ncn(-c3ccccc3)c2CCN1C(=O)c1cccc(Cl)c1Cl (centres unmarked) [Example 27, Ethyl 5-(2,3-dichlorobenzoyl)-1-phenyl-4,5,6,7-tetrahydro-1H-imidazo[4,5-c]pyridine-4-carboxylate] | 2.81 | – | –
4 | CN(C)CC1c2ncn(-c3ccccn3)c2CCN1C(=O)c1cccc(C(F)(F)F)c1Cl (centres unmarked) [Example 31, 1-(5-{[2-Chloro-3-(trifluoromethyl)phenyl]carbonyl}-1-pyridin-2-yl-4,5,6,7-tetrahydro-1H-imidazo[4,5-c]pyridin-4-yl)-N,N-dimethylmethanamine] | 0.333 | – | –
5 | CC1c2ncn(-c3ccc(F)cn3)c2CCN1C(=O)c1cccc(C(F)(F)F)c1F (centres unmarked) [Example 262, (2-fluoro-3-(trifluoromethyl)phenyl)(1-(5-fluoropyridin-2-yl)-4-methyl-6,7-dihydro-1H-imidazo[4,5-c]pyridin-5(4H)-yl)methanone] | 3.47 | −3.6 | –
6 | O=C(c1cccc(C(F)(F)F)c1Cl)N1CCc2c(nnn2-c2ccccn2)C1 [Example 63, 5-{[2-Chloro-3-(trifluoromethyl)phenyl]carbonyl}-1-pyridin-2-yl-4,5,6,7-tetrahydro-1H-[1,2,3]triazolo[4,5-c]pyridine] | 1.45 | – | –
7 | CC1c2ncn(-c3cnccn3)c2CCN1C(=O)c1cccc(C(F)(F)F)c1F (centres unmarked) [Example 14, (2-Fluoro-3-(trifluoromethyl)phenyl)(4-methyl-1-(pyrazin-2-yl)-6,7-dihydro-1H-imidazo[4,5-c]pyridin-5(4H)-yl)methanone] | 0.122 | – | –
8 | Cc1cccc(-n2nnc3c2CCN(C(=O)c2cccc(C(F)(F)F)c2F)C3C)n1 (centres unmarked) [Example 385, (2-fluoro-3-(trifluoromethyl)phenyl)(4-methyl-1-(6-methylpyridin-2-yl)-6,7-dihydro-1H-[1,2,3]triazolo[4,5-c]pyridin-5(4H)-yl)methanone] | 0.0578 | 12.4 | –
9 | Cc1nc(-n2nnc3c2CCN(C(=O)c2cccc(C(F)(F)F)c2Cl)C3C)ncc1F (single isomer, unassigned) [Example 306, (S*)-(2-chloro-3-(trifluoromethyl)phenyl)(1-(5-fluoro-4-methylpyrimidin-2-yl)-4-methyl-6,7-dihydro-1H-[1,2,3]triazolo[4,5-c]pyridin-5(4H)-yl)methanone] | 5.98 | 2.5 | IC50 (rat P2X7; 250 μM BzATP, Calcium-4 dye): 5.98 µM; PBMC 10 μM (% control) (human P2X7; test compound 10 μM, LPS 30 ng/ml + 0.5 mM Bz-ATP): 2.5 % control
10 | Cc1ccnc(-n2nnc3c2CCN(C(=O)c2cccc(Cl)c2C)C3C)c1 (centres unmarked) [Example 388, (3-chloro-2-methylphenyl)(4-methyl-1-(4-methylpyridin-2-yl)-6,7-dihydro-1H-[1,2,3]triazolo[4,5-c]pyridin-5(4H)-yl)methanone] | 2.28 | −18.8 | –
11 | Cc1ccnc(-n2nnc3c2CCN(C(=O)c2ccnc(C(F)(F)F)c2F)[C@H]3C)c1 (single isomer, unassigned) [Example 357, (S*)-(3-fluoro-2-(trifluoromethyl)pyridin-4-yl)(4-methyl-1-(4-methylpyridin-2-yl)-6,7-dihydro-1H-[1,2,3]triazolo[4,5-c]pyridin-5(4H)-yl)methanone] | 16.2 | 42.4 | –
12 | Cc1cccc(-n2nnc3c2CCN(C(=O)c2cccc(C(F)(F)F)c2F)[C@H]3C)n1 (single isomer, unassigned) [Example 387, (S*)-(2-fluoro-3-(trifluoromethyl)phenyl)(4-methyl-1-(6-methylpyridin-2-yl)-6,7-dihydro-1H-[1,2,3]triazolo[4,5-c]pyridin-5(4H)-yl)methanone] | 0.161 | 8.4 | –
13 | CC1(C)c2ncn(-c3ccccc3)c2CCN1C(=O)c1cccc(C(F)(F)F)c1Cl [Example 53, 5-{[2-Chloro-3-(trifluoromethyl)phenyl]carbonyl}-4,4-dimethyl-1-phenyl-4,5,6,7-tetrahydro-1H-imidazo[4,5-c]pyridine] | 3.15 | – | PBMC 1 μM (% control) (human P2X7; human PBMCs, test compound 1 μM): 99.0 % control
14 | CC1c2ncn(-c3ncccn3)c2CCN1C(=O)c1cccc(C(F)(F)F)c1Cl (centres unmarked) [Example 23, (2-Chloro-3-(trifluoromethyl)phenyl)(4-methyl-1-(pyrimidin-2-yl)-6,7-dihydro-1H-imidazo[4,5-c]pyridin-5(4H)-yl)methanone] | 0.113 | 6.4 | –
15 | CC1c2n[nH]c(-c3cnccn3)c2CCN1C(=O)c1cccc(C(F)(F)F)c1Cl (centres unmarked) [Example 438, (2-chloro-3-(trifluoromethyl)phenyl)(7-methyl-3-(pyrazin-2-yl)-4,5-dihydro-2H-pyrazolo[3,4-c]pyridin-6(7H)-yl)methanone] | – | – | IC50 (rat P2X7; Ca2+ flux, 250 μM BzATP, rat P2X7 1321N1 cells): 0.482 µM; PBMC 10 μM (% control) (human P2X7; 10 μM test compound, human PBMCs, LPS + Bz-ATP): −10.8 % control
16 | Cc1ccnc(-n2nnc3c2CCN(C(=O)c2ccnc(C(F)(F)F)c2F)C3C)c1 (centres unmarked) [Example 355, (3-fluoro-2-(trifluoromethyl)pyridin-4-yl)(4-methyl-1-(4-methylpyridin-2-yl)-6,7-dihydro-1H-[1,2,3]triazolo[4,5-c]pyridin-5(4H)-yl)methanone] | 0.394 | −2.0 | –
17 | Cc1cc(-n2nnc3c2CCN(C(=O)c2cccc(C(F)(F)F)c2Cl)[C@@H]3C)ncc1F (single isomer, unassigned) [Example 382, (R*)-(2-chloro-3-(trifluoromethyl)phenyl)(1-(5-fluoro-4-methylpyridin-2-yl)-4-methyl-6,7-dihydro-1H-[1,2,3]triazolo[4,5-c]pyridin-5(4H)-yl)methanone] | 0.0566 | −2.7 | –
18 | Cc1cc(-n2nnc3c2CCN(C(=O)c2cccc(C(F)(F)F)c2Cl)C3C)ncc1F (centres unmarked) [Example 381, (2-chloro-3-(trifluoromethyl)phenyl)(1-(5-fluoro-4-methylpyridin-2-yl)-4-methyl-6,7-dihydro-1H-[1,2,3]triazolo[4,5-c]pyridin-5(4H)-yl)methanone] | 0.234 | 4.1 | –
19 | Cc1ccnc(-n2nnc3c2CCN(C(=O)c2ccnc(C(F)(F)F)c2F)[C@@H]3C)c1 (single isomer, unassigned) [Example 356, (R*)-(3-fluoro-2-(trifluoromethyl)pyridin-4-yl)(4-methyl-1-(4-methylpyridin-2-yl)-6,7-dihydro-1H-[1,2,3]triazolo[4,5-c]pyridin-5(4H)-yl)methanone] | 0.12 | −5.9 | –
20 | Cc1cc(-n2nnc3c2CCN(C(=O)c2ccnc(C(F)(F)F)c2F)C3C)ncn1 (centres unmarked) [Example 397, (3-fluoro-2-(trifluoromethyl)pyridin-4-yl)(4-methyl-1-(6-methylpyrimidin-4-yl)-6,7-dihydro-1H-[1,2,3]triazolo[4,5-c]pyridin-5(4H)-yl)methanone] | – | 64.7 | –
21 | CC1Cc2c(nnn2-c2cc(F)ccn2)CN1C(=O)c1cccc(C(F)(F)F)c1Cl (centres unmarked) [Example 176, (2-Chloro-3-(trifluoromethyl)phenyl)(1-(4-fluoropyridin-2-yl)-6-methyl-6,7-dihydro-1H-[1,2,3]triazolo[4,5-c]pyridin-5(4H)-yl)methanone] | – | 7.3 | –
22 | Cc1cc(-n2nnc3c2CCN(C(=O)c2ccc(Cl)c(C(F)(F)F)c2)[C@@H]3C)ncc1F (single isomer, unassigned) [Example 365, (R*)-(4-chloro-3-(trifluoromethyl)phenyl)(1-(5-fluoro-4-methylpyridin-2-yl)-4-methyl-6,7-dihydro-1H-[1,2,3]triazolo[4,5-c]pyridin-5(4H)-yl)methanone] | – | 108.2 | –
23 | C[C@H]1Cc2c(nnn2-c2ncc(F)cn2)CN1C(=O)c1ccc(Cl)c(F)c1Cl (single isomer, unassigned) [Example 218, (6S*)-5-[(2,4-Dichloro-3-fluorophenyl)carbonyl]-1-(5-fluoropyrimidin-2-yl)-6-methyl-4,5,6,7-tetrahydro-1H-[1,2,3]triazolo[4,5-c]pyridine] | – | 6.1 | –
24 | CC1c2nnn(-c3ncccn3)c2CCN1C(=O)c1cccc(C(F)(F)F)c1Cl (centres unmarked) [Example 80, 5-{[2-Chloro-3-(trifluoromethyl)phenyl]carbonyl}-4-methyl-1-pyrimidin-2-yl-4,5,6,7-tetrahydro-1H-[1,2,3]triazolo[4,5-c]pyridine] | – | 4.6 | –
25 | Cc1c(C(=O)N2Cc3nnn(-c4ncc(F)cn4)c3CC2C)cccc1C(F)(F)F (centres unmarked) [Example 206, 1-(5-Fluoropyrimidin-2-yl)-6-methyl-5-{[2-methyl-3-(trifluoromethyl)phenyl]carbonyl}-4,5,6,7-tetrahydro-1H-[1,2,3]triazolo[4,5-c]pyridine] | – | −1.0 | –
